Several values for one entry are separate records, joined by “and”; a condition that tells them apart may be missing. Identical values can stand only once.
Assays:
Solubility (remarks) = format: physicochemical
K2P18.1 (TRESK) = molecular target: T1, K2P18.1 (TRESK) (Mus musculus, UniProt Q6VV64); assay: Two-electrode voltage clamp, Xenopus oocytes expressing K2P18.1 (TRESK); format: cell-based, Murine
T1 construct: expressed in transfected cells; host or cells: Xenopus oocytes
T1 sequence (Q6VV64 1-394): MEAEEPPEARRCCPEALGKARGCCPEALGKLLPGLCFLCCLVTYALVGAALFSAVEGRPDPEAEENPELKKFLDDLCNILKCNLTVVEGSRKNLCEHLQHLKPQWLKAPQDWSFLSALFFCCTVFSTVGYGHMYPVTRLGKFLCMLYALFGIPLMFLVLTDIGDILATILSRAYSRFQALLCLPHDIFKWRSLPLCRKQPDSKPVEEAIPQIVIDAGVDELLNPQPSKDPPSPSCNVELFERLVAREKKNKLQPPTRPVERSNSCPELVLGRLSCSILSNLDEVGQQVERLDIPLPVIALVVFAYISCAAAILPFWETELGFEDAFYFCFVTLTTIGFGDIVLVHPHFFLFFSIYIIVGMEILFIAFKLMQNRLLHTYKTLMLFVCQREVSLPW
Description: (§1) FIG. 7 ML67-33 is a selective activator of heat- and mechanosensitive K2P channels. a-f, Exemplar I-V curves showing the effect of ML67-33 on a, K2P10.1 (TREK-2), b, K2P4.1 (TRAAK), c, K2P3.1 (TASK-1), d, K2P9.1 (TASK-3), e, K2P5.1 (TASK-2), and f, K2P18.1 (TRESK) measured in Xenopus oocytes in 2 mM [K^+]o pH 7.4. Currents were elicited by a voltage ramp from −150 to 50 mV, from a holding potential of −80 mV. g, Quantification of the effect of ML67-33 on the indicated channels. Data (mean±s.e., n≧6, N≧2) was normalized to basal channel activity and fitted to the Hill equation. […] Error bars indicate s.e., n≧6, N≧2.
(§2) Murine K2P channels were cloned into pGEMHE/pMO {Bagriantsev, 2011}, IRES-GFP (Invitrogen), or pYES2-MET25 (high copy 2μ, URA3) {Minor, 1999} for expression in oocytes, HEK-293T cells, and yeast, respectively, using standard molecular biology procedures, and verified by DNA sequencing.
(§3) Two-electrode voltage clamp recordings were performed from defolliculated stage V-VI Xenopus oocytes 24-48 hours after injection with 0.015-6.0 ng cRNA, using microelectrodes (0.3-3.0 MΩ) filled with 3M KCl. Data was acquired using the GeneClamp 500B (MDS Analytical Technologies) amplifier controlled by the pClamp software (Molecular Devices), and digitized at 1 kHz using Digidata 1332A (MDS Analytical Technologies). […]

K2P4.1 (TRAAK) = molecular target: T2, K2P4.1 (TRAAK) (Mus musculus, UniProt O88454); assay: Two-electrode voltage clamp, Xenopus oocytes expressing K2P4.1 (TRAAK); format: cell-based, Murine
T2 construct: expressed in transfected cells; host or cells: Xenopus oocytes
T2 sequence (O88454 1-398): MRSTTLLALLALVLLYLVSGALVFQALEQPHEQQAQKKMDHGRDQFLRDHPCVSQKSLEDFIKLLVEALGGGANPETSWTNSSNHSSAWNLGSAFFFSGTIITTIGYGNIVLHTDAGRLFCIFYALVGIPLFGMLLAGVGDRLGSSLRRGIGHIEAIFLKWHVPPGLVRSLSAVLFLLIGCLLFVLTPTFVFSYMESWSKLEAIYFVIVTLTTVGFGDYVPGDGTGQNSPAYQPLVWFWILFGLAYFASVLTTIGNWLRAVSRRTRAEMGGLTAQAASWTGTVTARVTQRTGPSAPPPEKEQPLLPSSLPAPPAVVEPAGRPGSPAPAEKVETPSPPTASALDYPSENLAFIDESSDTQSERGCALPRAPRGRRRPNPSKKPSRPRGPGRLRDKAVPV
Description: as §1, §2, §3

[1] = at 100 μM (FIG. 7 legend), ** in Table 1

CC1(C)c2cc(Cl)ccc2N(CCc2nnn[nH]2)c2ccc(Cl)cc21 [ML67-33, 2,7-dichloro-9,9-dimethyl-10-[2-(1H-tetrazol-5-yl)ethyl]acridine]
solubility (in words) (Solubility (remarks)): favorable solubility properties
functional effect (in words) (K2P18.1 (TRESK); applied at 100 μM): little or no functional effects
Emax (fold) (K2P18.1 (TRESK); [1]): 0.9±0.1 fold
EC50 (K2P4.1 (TRAAK); Xenopus oocytes, 2 mM [K+]o pH 7.4): 27.3 ± 1.2 µM
Emax (fold) (K2P4.1 (TRAAK); [1]): 14.7±1.1 fold and 14.7±1.12 fold

Source: patent publication US9862684B2, “Modulation of K2P channels” (The Regents of the University of California, priority 2013, dated 2018)
